Test results published in PMC11613437, “Prioritization of Eleven-Nineteen-Leukemia Inhibitors as Orally Available Drug Candidates for Acute Myeloid Leukemia” (Journal of Medicinal Chemistry, 2024).

How the values were obtained:
Format in all cases: cell-based
NLuc-ENL YEATS = molecular target: T1, NLuc-ENL YEATS (Homo sapiens, UniProt Q03111); assay: ENL-NanoBRET inhibitor competitive assay; conditions: HEK293T cells stably expressing NLuc-ENL YEATS, 1 μM Tracer 2, 2 h; mean ± SD, n = 3
T1 construct: DNA encoding the ENL YEATS domain (aa 1–148) was cloned into an NLuc containing plasmid; expressed in transfected cells
T1 sequence (Q03111 1-148): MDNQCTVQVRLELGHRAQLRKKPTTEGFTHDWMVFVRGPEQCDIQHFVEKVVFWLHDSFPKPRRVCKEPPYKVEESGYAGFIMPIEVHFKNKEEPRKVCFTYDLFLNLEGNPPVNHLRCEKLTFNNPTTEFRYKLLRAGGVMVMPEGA
Procedure: Approximately 1.8 × 10^4 HEK293T cells (100 μL) stably expressing NLuc-ENL YEATS were seeded into a white nonbinding 96-well assay plate and incubated overnight at 37 °C in a humidified 5% CO2 atmosphere. After removal of the medium, the cells were added with a tracer (with or without excess of unlabeled compound) in the Opti-MEM with 0.1% DMSO. After incubation at 37 °C for 2 h the assay plate was equilibrated at room temperature for 15 min. For BRET detection, the NanoGlo Substrate and the extracellular NanoLuc inhibitor (Promega, N2160) were diluted with Opti-MEM as described in protocol to afford detection solution. 50 μL of the detection solution was added per well and the plate was incubated for 3 min at room temperature. The donor emission was measured at 450 nm and the acceptor emission at 610 nm using a BioTek SYNERGY neo2 multimode reader. The BRET ratio was calculated according to the following formula: BRET ratio = [(acceptorsample/donorsample) – (acceptorno-tracer control/donorno-tracer control)] × 1000.
Sample procedures were followed for cell seeding as described in the previously described tracer affinity assay. After removal of the medium, the cells were added with a tracer in the medium (1.1 μM, 100 μL) and varied concentrations of a test compound in 0.1% DMSO (10 μL). The plate was thoroughly mixed on an orbital shaker for 15 s at 900 rpm. Then the cells were incubated at 37 °C, 5% CO2 for 2 h for BRET ratio detection as described previously.

[1] = Cell toxicity assay (CCK-8), MV4-11; conditions: human, MV4-11 cells, 8 day treatment, n = 3; read-out: CC50 MV4-11 (Cellular IC50, 8-days incubation)
Procedure: (§1) Approximately 1 × 10^4 JURKAT, MOLM-13, MV4-11 and HEK293T cells in RPMI 1640 (no phenol red) (100 μL) were added to a 96-well plate and treated with DMSO or a compound at indicated concentrations for 72 h or 8 days. Cell viability was measured using the CCK-8 kit (Abcam, ab228554) according to the manufacturer’s instructions.

[2] = Cell toxicity assay (CCK-8), Jurkat; conditions: human, Jurkat cells; for IC50 at 8 days: 8 day treatment, n = 3, read-out: CC50 Jurkat (Cellular IC50, 8-days incubation)
Procedure: as §1

MOLM-13 and MV4-11 cells = assay: Cell cycle analysis; conditions: 72 h treatment
Procedure: For cell cycle analysis, 5 × 10^6 cells were cultured at 2 mL/well in a 6-well plate treated in a ratio of 1:1000 with compound stocks in DMSO or 1:1000 with DMSO in triplicate. Cell cycle staining was performed by using a cell cycle analysis kit (Abcam, ab287852) and treated according to the protocol provided. The signal was analyzed by flow cytometry and the cytometry results were analyzed by CytExpert software.

ENL = molecular target: T2, ENL (Homo sapiens, UniProt Q03111); assay: Cellular thermal shift assay (CETSA); conditions: MOLM-13 and MV4-11 cells, 10 μM, 3 and 6 h
T2 construct: CETSAs of ENL in MOLM-13 (top) and MV4-11 (bottom) cells; endogenous in cells; host or cells: MOLM-13 and MV4-11
T2 sequence (Q03111 1-559): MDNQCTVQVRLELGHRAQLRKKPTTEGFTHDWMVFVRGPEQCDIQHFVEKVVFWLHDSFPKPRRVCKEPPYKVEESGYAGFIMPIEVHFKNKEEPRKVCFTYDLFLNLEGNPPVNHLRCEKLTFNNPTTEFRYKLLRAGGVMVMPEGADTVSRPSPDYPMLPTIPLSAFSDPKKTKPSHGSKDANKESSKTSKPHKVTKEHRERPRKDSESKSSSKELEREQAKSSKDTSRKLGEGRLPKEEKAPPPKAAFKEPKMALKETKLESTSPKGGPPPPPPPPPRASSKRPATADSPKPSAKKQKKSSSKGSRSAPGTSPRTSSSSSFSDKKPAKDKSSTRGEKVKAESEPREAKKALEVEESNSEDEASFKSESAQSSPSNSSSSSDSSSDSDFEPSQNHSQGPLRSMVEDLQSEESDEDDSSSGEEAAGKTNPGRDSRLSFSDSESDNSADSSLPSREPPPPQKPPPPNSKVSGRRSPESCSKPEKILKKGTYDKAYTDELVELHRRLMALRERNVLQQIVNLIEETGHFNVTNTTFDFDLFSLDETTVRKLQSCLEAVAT
Procedure: MOLM-13 and MV4-11 were incubated with 10 μM of inhibitor 13 for 3 and 6 h, respectively. The cells were then collected and washed with PBS 3 times. The cell pellets were resuspended in PBS-containing protease inhibitors and aliquoted into PCR microtubes (approximately 3 million cells in 54 μL). Cells were heated at indicated temperatures for 3 min in a thermal cycler (Bio-Rad) and then incubated at room temperature for 2 min. A total of 6 μL of 10× cell lysis buffer (8% NP-40, 50% glycerol, and 10 mM dithiothreitol) was added to each sample before subjecting the sample to three freeze–thaw cycles by liquid nitrogen and 37 °C water bath incubations to lyse the cells. The cell lysates were centrifuged at 13,000 rpm at 4 °C for 10 min, and the supernatants were analyzed using SDS-PAGE and Western blotting.

[3] = test system: HOXA9, HOXA10, MEIS1, MYB and MYC; assay: qRT-PCR of ENL target genes; conditions: MOLM-13 and MV4-11 cells, 72 h, concentrations as low as 1.0 μM
Procedure: Total RNA was extracted using the RNeasy plus kit (Qiagen, 74034) and reverse-transcribed using an iScript cDNA synthesis kit (Bio-Rad, 1708890). Quantitative real-time PCR (qRT-PCR) analyses were performed as described previously using PowerUp SYBR Green PCR Master Mix (Thermo Fisher, A25742) and the Bio-Rad CFX96 real-time PCR detection system. Gene expressions were calculated following normalization to β2-microglobulin (B2M) levels using the comparative Ct (cycle threshold) method. The primer pairs are as follows. HOXA9: forward 5′-GTATAG-[…]-3′, reverse 5′-[…]-3′. MEIS1: forward 5′-[…]-3′, reverse 5′ […]-AGCAAG-3′. MYB: forward 5′-[…]-3′, reverse 5′-[…]-3′, MYC: forward 5′-[…]-AGGT-3′, reverse 5′-TTT-[…]-3′. B2M: forward 5′-[…]-3′ reverse 5′-[…]-3′.

| Structure (SMILES) | IC50 (NLuc-ENL YEATS) [µM] | IC50 at 8 days [1] [µM] | IC50 at 8 days [2] [µM] | cell cycle: G1 phase (MOLM-13 and MV4-11 cells) | CETSA: thermal stability of ENL vs DMSO at elevated temperatures (ENL) | expression of ENL target genes [3] | CC50 at 72 h ([2]; 72 h treatment (superscript a)) [µM] |
| --- | --- | --- | --- | --- | --- | --- | --- |
| CC(C)[C@H]1CCN1Cc1cc2cnc(NC(=O)c3ccc4nncn4c3)cc2[nH]1 [SR-C-107 (R), (R)-N-(2-((2-Isopropylazetidin-1-yl)methyl)-1H-pyrrolo[3,2-c]pyridin-6-yl)-[1,2,4]triazolo[4,3-a]pyridine-6-carboxamide] | 0.59 | 0.81 ± 0.15 | > 64 | increase in the G1 phase | higher abundance of ENL | effectively suppress the expression of these genes |  |
| CC(C)C1CCN1Cc1ccc(CNC(=O)c2ccc3nncn3c2)cc1 (stereo not shown) [inhibitor 13] | 4.29 | 6.72 | 22 ± 1.79 | increase in the G1 phase | higher abundance of ENL | effectively suppress the expression of these genes | > 64 |
